Experimental data: ChEMBL document CHEMBL3045393, “Aryldiones incorporating a [1,4,5]oxadiazepane ring. Part I: Discovery of the novel cereal herbicide pinoxaden” (Bioorg Med Chem, 2009)

Assays:
Triticum aestivum [1] = experiment: Phytotoxicity against Triticum aestivum (wheat) at 30 g a.i./ha applied post-emergence measured after 21 days in presence of 1% Merge adjuvant; format: organism-based; settings: in vivo, other, 504 h
Alopecurus myosuroides [2] = experiment: Post-emergence herbicidal activity against Alopecurus myosuroides at 30 g a.i./ha measured after 21 days in presence of 1% Merge adjuvant; format: functional
Lolium perenne [3] = experiment: Post-emergence herbicidal activity against Lolium perenne (perennial ryegrass) at 30 g a.i./ha measured after 21 days in presence of 1% Merge adjuvant; format: functional
Avena fatua [4] = experiment: Post-emergence herbicidal activity against Avena fatua at 30 g a.i./ha measured after 21 days in presence of 1% Merge adjuvant; format: functional
Hordeum vulgare [5] = experiment: Phytotoxicity against Hordeum vulgare (barley) at 30 g a.i./ha applied post-emergence measured after 21 days in presence of 1% Merge adjuvant; format: organism-based; settings: in vivo, other, 504 h
Setaria faberi [6] = experiment: Post-emergence herbicidal activity against Setaria faberi (Giant Foxtail) at 30 g a.i./ha measured after 21 days in presence of 1% Merge adjuvant; format: functional
Lolium perenne [7] = experiment: Post-emergence herbicidal activity against Lolium perenne (perennial ryegrass) at 2000 g a.i./ha after 21 days; format: functional
Setaria faberi [8] = experiment: Post-emergence herbicidal activity against Setaria faberi (Giant Foxtail) at 2000 g a.i./ha after 21 days; format: functional
Avena fatua [9] = experiment: Post-emergence herbicidal activity against Avena fatua at 500 g a.i./ha after 21 days; format: functional
Lolium perenne [10] = experiment: Post-emergence herbicidal activity against Lolium perenne (perennial ryegrass) at 500 g a.i./ha after 21 days; format: functional
Setaria faberi [11] = experiment: Post-emergence herbicidal activity against Setaria faberi (Giant Foxtail) at 500 g a.i./ha after 21 days; format: functional
Avena fatua [12] = experiment: Post-emergence herbicidal activity against Avena fatua at 2000 g a.i./ha after 21 days; format: functional
Setaria faberi [13] = experiment: Post-emergence herbicidal activity against Setaria faberi (Giant Foxtail) at 125 g a.i./ha measured after 21 days in presence of 0.2% X-77 adjuvant; format: functional
Hordeum vulgare [14] = experiment: Phytotoxicity against Hordeum vulgare (barley) at 125 g a.i./ha applied post-emergence measured after 21 days in presence of 0.2% X-77 adjuvant; format: organism-based; settings: in vivo, other, 504 h
Lolium perenne [15] = experiment: Post-emergence herbicidal activity against Lolium perenne (perennial ryegrass) at 125 g a.i./ha measured after 21 days in presence of 0.2% X-77 adjuvant; format: functional
Avena fatua [16] = experiment: Post-emergence herbicidal activity against Avena fatua at 125 g a.i./ha measured after 21 days in presence of 0.2% X-77 adjuvant; format: functional
Triticum aestivum [17] = experiment: Phytotoxicity against Triticum aestivum (wheat) at 125 g a.i./ha applied post-emergence measured after 21 days in presence of 0.2% X-77 adjuvant; format: organism-based; settings: in vivo, other, 504 h
Alopecurus myosuroides [18] = experiment: Post-emergence herbicidal activity against Alopecurus myosuroides at 125 g a.i./ha measured after 21 days in presence of 0.2% X-77 adjuvant; format: functional
Alopecurus myosuroides [19] = experiment: Post-emergence herbicidal activity against Alopecurus myosuroides at 500 g a.i./ha measured after 15 days; format: functional
Lolium perenne [20] = experiment: Post-emergence herbicidal activity against Lolium perenne (perennial ryegrass) at 500 g a.i./ha measured after 15 days; format: functional
Hordeum vulgare [21] = experiment: Phytotoxicity against Hordeum vulgare (barley) at 500 g a.i./ha applied post-emergence measured after 15 days; format: organism-based; settings: in vivo, other, 360 h
Avena fatua [22] = experiment: Post-emergence herbicidal activity against Avena fatua at 500 g a.i./ha measured after 15 days; format: functional
Triticum aestivum [23] = experiment: Phytotoxicity against Triticum aestivum (wheat) at 500 g a.i./ha applied post-emergence measured after 15 days; format: organism-based; settings: in vivo, other, 360 h
Setaria faberi [24] = experiment: Post-emergence herbicidal activity against Setaria faberi (Giant Foxtail) at 500 g a.i./ha measured after 15 days; format: functional
Avena fatua [25] = experiment: Post-emergence herbicidal activity against Avena fatua at 250 g a.i./ha measured after 21 days in presence of 1% Merge adjuvant; format: functional
Lolium perenne [26] = experiment: Post-emergence herbicidal activity against Lolium perenne (perennial ryegrass) at 250 g a.i./ha measured after 21 days in presence of 1% Merge adjuvant; format: functional
Hordeum vulgare [27] = experiment: Phytotoxicity against Hordeum vulgare (barley) at 250 g a.i./ha applied post-emergence measured after 21 days in presence of 1% Merge adjuvant; format: organism-based; settings: in vivo, other, 504 h
Setaria faberi [28] = experiment: Post-emergence herbicidal activity against Setaria faberi (Giant Foxtail) at 250 g a.i./ha measured after 21 days in presence of 1% Merge adjuvant; format: functional
Triticum aestivum [29] = experiment: Phytotoxicity against Triticum aestivum (wheat) at 250 g a.i./ha applied post-emergence measured after 21 days in presence of 1% Merge adjuvant; format: organism-based; settings: in vivo, other, 504 h
Alopecurus myosuroides [30] = experiment: Post-emergence herbicidal activity against Alopecurus myosuroides at 250 g a.i./ha measured after 21 days in presence of 1% Merge adjuvant; format: functional
[31] = Half life of hydrolysis at pH 7 at 50 degC; format: ADME; settings: buffer

Row | Compound | Activity (Triticum aestivum [1]) [%] | Activity (Alopecurus myosuroides [2]) [%] | Activity (Lolium perenne [3]) [%] | Activity (Avena fatua [4]) [%] | Activity (Hordeum vulgare [5]) [%] | Activity (Setaria faberi [6]) [%] | Activity (Lolium perenne [7]) [%] | Activity (Setaria faberi [8]) [%] | Activity (Avena fatua [9]) [%] | Activity (Lolium perenne [10]) [%] | Activity (Setaria faberi [11]) [%] | Activity (Avena fatua [12]) [%] | other results
1 | CCc1cc(C)cc(CC)c1-c1c(OS(=O)(=O)N(C)C)n2n(c1=O)CCOCC2 | 0 | 0 | 50 | 10 | 0 | 20 | – | – | – | – | – | – | –
2 | Cc1cc(C)c(-c2c(OC(=O)C(C)(C)C)n3n(c2=O)CC[S+]([O-])CC3)c(C)c1 (centres undefined) | – | – | – | – | – | – | 50 | 80 | 20 | 20 | 40 | 80 | –
3 | CCc1cc(C)cc(CC)c1-c1c(OC(=O)OC(C)C)n2n(c1=O)CCOCC2 | 0 | 80 | 100 | 90 | 0 | 100 | – | – | – | – | – | – | –
4 | CCc1cc(CC)c(C2C(=O)N3CCCCN3C2=O)c(CC)c1 | – | – | – | – | – | – | – | – | – | – | – | – | Activity (Setaria faberi [13]): 50%; Activity (Hordeum vulgare [14]): 40%; Activity (Lolium perenne [15]): 60%; Activity (Avena fatua [16]): 100%; Activity (Triticum aestivum [17]): 40%; Activity (Alopecurus myosuroides [18]): 90%
5 | Cc1cc(C)c(-c2c(OC(=O)C(C)(C)C)n3n(c2=O)CCCCC3)c(C)c1 | – | – | – | – | – | – | 100 | 90 | 60 | 80 | 90 | 90 | –
6 | Cc1cc(C)c(C2C(=O)N3CCS(=O)(=O)CCN3C2=O)c(C)c1 | – | – | – | – | – | – | 60 | 60 | 60 | 20 | 20 | 80 | –
7 | Cc1cc(C)c(C2C(=O)N3CCCCCN3C2=O)c(C)c1 | – | – | – | – | – | – | 90 | 90 | 50 | 60 | 90 | 90 | Activity (Alopecurus myosuroides [19]): 50%; Activity (Lolium perenne [20]): 50%; Activity (Hordeum vulgare [21]): 40%; Activity (Avena fatua [22]): 90%; Activity (Triticum aestivum [23]): 20%; Activity (Setaria faberi [24]): 60%
8 | Cc1cc(C)c(C2C(=O)N3CCOCCN3C2=O)c(C)c1 | 0 | 10 | 80 | 60 | 0 | 50 | 100 | 100 | 80 | 90 | 80 | 100 | Activity (Avena fatua [25]): 90%; Activity (Lolium perenne [26]): 90%; Activity (Hordeum vulgare [27]): 20%; Activity (Setaria faberi [28]): 90%; Activity (Triticum aestivum [29]): 50%; Activity (Alopecurus myosuroides [30]): 80%
9 | Cc1cc(C)c(C2C(=O)N3CC[S+]([O-])CCN3C2=O)c(C)c1 | – | – | – | – | – | – | 80 | 90 | 40 | 40 | 60 | 80 | –
10 | CCCCCCCS(=O)(=O)Oc1c(-c2c(CC)cc(C)cc2CC)c(=O)n2n1CCOCC2 | 20 | 80 | 100 | 100 | 0 | 90 | – | – | – | – | – | – | half-life [31]: 3 h
11 | Cc1cc(C)c(C2C(=O)N3CCSCCN3C2=O)c(C)c1 | – | – | – | – | – | – | 90 | 100 | 60 | 50 | 90 | 90 | –
12 | Cc1cc(C)c(C2C(=O)N3CCCOCN3C2=O)c(C)c1 (centres undefined) | – | – | – | – | – | – | – | – | – | – | – | – | Activity (Avena fatua [25]): 0%; Activity (Lolium perenne [26]): 20%; Activity (Hordeum vulgare [27]): 10%; Activity (Setaria faberi [28]): 50%; Activity (Triticum aestivum [29]): 10%; Activity (Alopecurus myosuroides [30]): 0%
13 | CCc1cc(C)cc(CC)c1C1C(=O)N2CCCCN2C1=O | – | – | – | – | – | – | – | – | – | – | – | – | Activity (Setaria faberi [13]): 80%; Activity (Hordeum vulgare [14]): 90%; Activity (Lolium perenne [15]): 90%; Activity (Avena fatua [16]): 100%; Activity (Triticum aestivum [17]): 80%; Activity (Alopecurus myosuroides [18]): 90%
14 | Cc1cc(C)c(-c2c(OC(=O)C(C)(C)C)n3n(c2=O)CCS(=O)(=O)CC3)c(C)c1 | – | – | – | – | – | – | 50 | 50 | 20 | 10 | 10 | 80 | –
15 | Cc1cc(C)c(-c2c(OC(=O)C(C)(C)C)n3n(c2=O)CCSCC3)c(C)c1 | – | – | – | – | – | – | 80 | 100 | 50 | 40 | 60 | 90 | –
16 | Cc1cc(C)c(C2C(=O)N3CCN(C)CCN3C2=O)c(C)c1 | – | – | – | – | – | – | 60 | 90 | 0 | 10 | 40 | 10 | –
17 | CCOc1c(-c2c(CC)cc(C)cc2CC)c(=O)n2n1CCOCC2 | 0 | 0 | 20 | 0 | 0 | 0 | – | – | – | – | – | – | –
18 | CCc1cc(C)cc(CC)c1-c1c(OCOC(=O)C(C)(C)C)n2n(c1=O)CCOCC2 | 10 | 60 | 100 | 100 | 0 | 90 | – | – | – | – | – | – | –
19 | Cc1cc(C)c(C2C(=O)N3CCOCN3C2=O)c(C)c1 (centres undefined) | – | – | – | – | – | – | – | – | – | – | – | – | Activity (Avena fatua [25]): 90%; Activity (Lolium perenne [26]): 90%; Activity (Hordeum vulgare [27]): 0%; Activity (Setaria faberi [28]): 90%; Activity (Triticum aestivum [29]): 20%; Activity (Alopecurus myosuroides [30]): 40%
20 | CCc1cc(C)cc(CC)c1-c1c(OC(=O)N(CC)CC)n2n(c1=O)CCOCC2 | 0 | 0 | 0 | 0 | 0 | 0 | – | – | – | – | – | – | –
